The values below come from PMC6131501, “Urate transporter inhibitor lesinurad is a selective peroxisome proliferator-activated receptor gamma modulator (sPPARγM) in vitro” (Scientific Reports, 2018).

One series concerns CYP3A4. Further details: method as in PMID 28067999. The note with it: cited from earlier work.
Another series deals with PPARγ LBD / CBP (Homo sapiens, UniProt P37231). As to the kind of experiment: PPARγ coactivator recruitment assay (time-resolved FRET), CBP. The class given is biochemical. The text has this: We analyzed the ability of lesinurad to induce recruitment of the coactivators steroid receptor coactivator 1 (SRC-1, also known as nuclear receptor coactivator 1 (NCOA1)) and cyclic AMP responsive element binding (CREB) protein (CBP) to the PPARγ ligand binding domain in a time-resolved FRET assay with labeled PPARγ-LBD and coactivator proteins (Fig. 5D).
Recruitment of coactivator-derived peptides to the PPARγ LBD was studied by homogeneous time-resolved fluorescence resonance energy transfer (HT-FRET or HTRF). Terbium cryptate as streptavidin conjugate (cisbio assays, France) was used as FRET donor. Peptides derived from coactivators SRC-1 [biotin-[…]] or CBP [biotin-[…]] encompassing the coactivator consensus motif LxxLL and N-terminal biotin for stable coupling to streptavidin were purchased (Eurogentec GmbH, Germany). […] FI520 nm was divided by FI620 nm and multiplied with 10,000 giving a dimensionless HTRF signal. Coactivator recruitment by the PPARγ LBD brings FRET donor and acceptor into close proximity resulting in a gain in FRET signal as signal for binding.

Series [1] relates to PPARγ-regulated genes in 3T3-L1 adipocytes. As to the kind of experiment: PPARγ target gene quantification in 3T3-L1 adipocytes (qPCR). The note with it: 3T3-L1 adipocytes, rosiglitazone 2 μM, 1 30 μM, mean ± SEM, n = 3. The class given is cell-based, murine. As to the method: 3T3-L1 cells were cultured and differentiated as described above. Cells were then lysed using TRIzol reagent (Ambion, Life Technologies, Carlsbad, CA, USA), and mRNA was isolated following the manufacturer’s protocol. DNA contaminations were digested using DNase (DNase I, RNase-free kit; Thermo Scientific, Waltham, MA, USA) and mRNA concentrations were measured with a NanoDrop2000 spectrophotometer (Thermo Scientific, Waltham, MA, USA). Subsequently, reverse transcription was performed using the high capacity RNA-to-cDNA kit (Applied Biosystems, Foster City, CA, USA). Quantitative real-time PCR was performed using specific primers for CD36, […] and CPT1A with a StepOnePlus real-time PCR system (Applied Biosystems, Foster City, CA, USA). Non-POU domain containing octamer binding protein (NonO) was used as reference gene for 3T3-L1. All samples were measured in duplicate and were analyzed using the ΔΔCt method. The following PCR primers were used: Adiponectin: 5′-TGACGACACCAAAAGGGCTC-3′ (fwd) and 5′-CACAAGTTCCCTTGGGTGGA-3′ (rev); CD36: 5′-TGCTGGAGCTGTTATTGGTG-3′ (fwd) and 5′-CATGAGAATGCCTCCAAACA-3′ (rev); FABP4: 5′-AGAAGTGGGAGTGGGCTTTG-3′ (fwd) and 5′-ACTCTCTGACCGGATGGTGA-3′ (rev); GLUT4: 5′-TGAAGAACGGATAGGGAGCAG-3′ (fwd) and 5′-GAAGTGCAAAGGGTGAGTGAG-3′ (rev); NonO: 5′-TGCTCCTGTGCCACCTGGTACTC-3′ (fwd) and 5′-CCGGAGCTGGACGGTTGAATGC-3′ (rev).
Results (expressed as mean ± SEM % relative mRNA expression; n = 3): Adiponectin: untreated (0.1% DMSO): 124 ± 45%; […];

Details of series [2]: method as in PMID 27716403, PMID 26951201. The note with it: cited from earlier work.

Sequence of PPARγ LBD / CBP (P37231 238-503 limits assumed): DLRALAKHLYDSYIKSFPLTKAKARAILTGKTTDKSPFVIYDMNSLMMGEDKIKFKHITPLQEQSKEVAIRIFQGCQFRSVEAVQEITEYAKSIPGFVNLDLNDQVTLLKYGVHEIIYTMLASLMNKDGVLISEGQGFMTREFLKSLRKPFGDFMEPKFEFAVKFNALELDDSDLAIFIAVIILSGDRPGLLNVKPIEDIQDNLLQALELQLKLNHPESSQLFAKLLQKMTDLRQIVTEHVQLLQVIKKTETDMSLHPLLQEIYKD
Sequence of PPARγ LBD / CBP (Q92793 58-80 partner limits assumed): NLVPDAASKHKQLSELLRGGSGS

Regarding `O=C(O)CSc1nnc(Br)n1-c1ccc(C2CC2)c2ccccc12` [lesinurad], the CYP3A4 induction result in the series with CYP3A4 is “CYP3A4 inducer”. For the same compound, the EC50 on PPARγ LBD / CBP (HTRF, PPARγ LBD, 2 h at RT) amounted to 44 ± 8 µM. This compound also displayed a CBP recruitment efficacy on PPARγ LBD / CBP (compared to 1 μM rosiglitazone) of 59 ± 4%. The “CD36 relative mRNA expression” value in series [1] (untreated 122 ± 43%) is 205 ± 76%. In series [1] (untreated 124 ± 45%), the “Adiponectin relative mRNA expression” value was 175 ± 63%. Further, the “GLUT4 relative mRNA expression” value in series [1] (untreated 145 ± 61%) is 128 ± 43%. Moreover, the “FABP4 relative mRNA expression” value in series [1] (untreated 161 ± 72%) turned out to be 151 ± 58%. Further, in series [2], the plasma protein binding was 98%.
